Measurements as given in PubChem BioAssay AID1963839 (Molecular Pharmacology Branch, DTP, NCI, 2024).
pIC50: −log10 of the molar value.

Tested on: 817829-284-R-J1-PDC complex spheroid viability
Assay: Anticancer human tumor 817829-284-R-J1-PDC patient-derived colon adenocarcinoma cell line growth inhibition [POLQ]
Settings: for pIC50: curve of first compound; for viability, T/C: stronger effect = lower value
How it was run: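 Complex spheroid viability model combining PDC tumour cells with endothelial (HUVEC) and MSC stromal cells. Novobiocin, ART-558 or RP6685 were tested singly and in combination with standard and investigational anticancer drugs. Each was titrated in half-log steps from near clinical Cmax, or from 10 microM where Cmax was unknown.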

[1] = second compound 0.0316 µM, first compound 0.0316 µM
[2] = second compound 0.0316 µM, first compound 0.1 µM
[3] = second compound 0.0316 µM, first compound 0.316 µM
[4] = second compound 0.0316 µM, first compound 1 µM
[5] = second compound 0.0316 µM, first compound 3.16 µM
[6] = second compound 0.0316 µM, first compound 10 µM
[7] = second compound 0.1 µM, first compound 0.0316 µM
[8] = second compound 0.1 µM, first compound 0.1 µM
[9] = second compound 0.1 µM, first compound 0.316 µM
[10] = second compound 0.1 µM, first compound 1 µM
[11] = second compound 0.1 µM, first compound 3.16 µM
[12] = second compound 0.1 µM, first compound 10 µM
[13] = second compound 0.316 µM, first compound 0.0316 µM
[14] = second compound 0.316 µM, first compound 0.1 µM
[15] = second compound 0.316 µM, first compound 0.316 µM
[16] = second compound 0.316 µM, first compound 1 µM
[17] = second compound 0.316 µM, first compound 3.16 µM
[18] = second compound 0.316 µM, first compound 10 µM
[19] = second compound 1 µM, first compound 0.0316 µM
[20] = second compound 1 µM, first compound 0.1 µM
[21] = second compound 1 µM, first compound 0.316 µM
[22] = second compound 1 µM, first compound 1 µM
[23] = second compound 1 µM, first compound 3.16 µM
[24] = second compound 1 µM, first compound 10 µM
[25] = second compound 3.16 µM, first compound 0.0316 µM
[26] = second compound 3.16 µM, first compound 0.1 µM
[27] = second compound 3.16 µM, first compound 0.316 µM
[28] = second compound 3.16 µM, first compound 1 µM
[29] = second compound 3.16 µM, first compound 3.16 µM
[30] = second compound 3.16 µM, first compound 10 µM
[31] = second compound 10 µM, first compound 0.0316 µM
[32] = second compound 10 µM, first compound 0.1 µM
[33] = second compound 10 µM, first compound 0.316 µM
[34] = second compound 10 µM, first compound 1 µM
[35] = second compound 10 µM, first compound 3.16 µM
[36] = second compound 10 µM, first compound 10 µM
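Further: spheroids exposed to compounds for 7 days.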
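Wherever viability, T/C is given: 100% = DMSO vehicle-treated spheroids.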

O=C(Nc1ccc(O)c(NS(=O)(=O)c2ccc(F)cc2)c1)c1ccc(-c2ccccc2)cc1 + COC1C(OC(N)=O)C(O)C(Oc2ccc3c(O)c(NC(=O)c4ccc(O)c(CC=C(C)C)c4)c(=O)oc3c2C)OC1(C)C
pIC50 (second compound 0.0316 µM): 5.11
pIC50 (second compound 0.1 µM): 5.15
pIC50 (second compound 0.316 µM): 5.24
pIC50 (second compound 1 µM): 5.20
pIC50 (second compound 3.16 µM): 5.19
pIC50 (second compound 10 µM): 5.13
viability, T/C [1]: 114%
viability, T/C [2]: 68.6%
viability, T/C [3]: 95.2%
viability, T/C [4]: 72.2%
viability, T/C [5]: 72.9%
viability, T/C [6]: 38.4%
viability, T/C [7]: 74.9%
viability, T/C [8]: 108%
viability, T/C [9]: 79.2%
viability, T/C [10]: 101%
viability, T/C [11]: 84%
viability, T/C [12]: 36%
viability, T/C [13]: 91.5%
viability, T/C [14]: 106%
viability, T/C [15]: 90.4%
viability, T/C [16]: 87.7%
viability, T/C [17]: 68.9%
viability, T/C [18]: 32.4%
viability, T/C [19]: 100%
viability, T/C [20]: 84.8%
viability, T/C [21]: 107%
viability, T/C [22]: 84.7%
viability, T/C [23]: 66.6%
viability, T/C [24]: 39.6%
viability, T/C [25]: 91.9%
viability, T/C [26]: 100%
viability, T/C [27]: 103%
viability, T/C [28]: 103%
viability, T/C [29]: 68.5%
viability, T/C [30]: 39.1%
viability, T/C [31]: 82.8%
viability, T/C [32]: 109%
viability, T/C [33]: 99.6%
viability, T/C [34]: 109%
viability, T/C [35]: 66.7%
viability, T/C [36]: 44.1%

CC(=O)O[C@H]1C(=O)[C@@]2(C)[C@H]([C@H](OC(=O)c3ccccc3)[C@]3(O)C[C@H](OC(=O)[C@H](O)[C@@H](NC(=O)c4ccccc4)c4ccccc4)C(C)=C1C3(C)C)[C@]1(OC(C)=O)CO[C@@H]1C[C@@H]2O + Cc1cccc(N(C)C(=O)C2C(O)CCN2c2nc(C)cc(C(F)(F)F)c2C#N)c1
pIC50 (second compound 0.0316 µM): > 8.02
pIC50 (second compound 0.1 µM): > 8.02
pIC50 (second compound 0.316 µM): > 8.02
pIC50 (second compound 1 µM): > 8.02
pIC50 (second compound 3.16 µM): > 8.02
pIC50 (second compound 10 µM): > 8.02
viability, T/C (second compound 0.0316 µM, first compound 0.00949 µM): 4.71%
viability, T/C (second compound 0.0316 µM, first compound 0.03 µM): 4.06%
viability, T/C (second compound 0.0316 µM, first compound 0.0949 µM): 3.84%
viability, T/C (second compound 0.0316 µM, first compound 0.3 µM): 3.78%
viability, T/C (second compound 0.0316 µM, first compound 0.949 µM): 3.98%
viability, T/C (second compound 0.0316 µM, first compound 3 µM): 4.66%
viability, T/C (second compound 0.1 µM, first compound 0.00949 µM): 4.94%
viability, T/C (second compound 0.1 µM, first compound 0.03 µM): 4.36%
viability, T/C (second compound 0.1 µM, first compound 0.0949 µM): 3.84%
viability, T/C (second compound 0.1 µM, first compound 0.3 µM): 4.37%
viability, T/C (second compound 0.1 µM, first compound 0.949 µM): 4.32%
viability, T/C (second compound 0.1 µM, first compound 3 µM): 4.51%
viability, T/C (second compound 0.316 µM, first compound 0.00949 µM): 4.66%
viability, T/C (second compound 0.316 µM, first compound 0.03 µM): 4.72%
viability, T/C (second compound 0.316 µM, first compound 0.0949 µM): 4.39%
viability, T/C (second compound 0.316 µM, first compound 0.3 µM): 4.37%
viability, T/C (second compound 0.316 µM, first compound 0.949 µM): 4.24%
viability, T/C (second compound 0.316 µM, first compound 3 µM): 3.51%
viability, T/C (second compound 1 µM, first compound 0.00949 µM): 4.57%
viability, T/C (second compound 1 µM, first compound 0.03 µM): 8.02%
viability, T/C (second compound 1 µM, first compound 0.0949 µM): 4.15%
viability, T/C (second compound 1 µM, first compound 0.3 µM): 4.37%
viability, T/C (second compound 1 µM, first compound 0.949 µM): 4.04%
viability, T/C (second compound 1 µM, first compound 3 µM): 4.46%
viability, T/C (second compound 3.16 µM, first compound 0.00949 µM): 4.41%
viability, T/C (second compound 3.16 µM, first compound 0.03 µM): 3.99%
viability, T/C (second compound 3.16 µM, first compound 0.0949 µM): 4.51%
viability, T/C (second compound 3.16 µM, first compound 0.3 µM): 4.14%
viability, T/C (second compound 3.16 µM, first compound 0.949 µM): 3.93%
viability, T/C (second compound 3.16 µM, first compound 3 µM): 3.87%
viability, T/C (second compound 10 µM, first compound 0.00949 µM): 4.67%
viability, T/C (second compound 10 µM, first compound 0.03 µM): 3.97%
viability, T/C (second compound 10 µM, first compound 0.0949 µM): 4.2%
viability, T/C (second compound 10 µM, first compound 0.3 µM): 4.14%
viability, T/C (second compound 10 µM, first compound 0.949 µM): 4.11%
viability, T/C (second compound 10 µM, first compound 3 µM): 4.13%

COc1cccc2c1C(=O)c1c(O)c3c(c(O)c1C2=O)CC(O)(C(=O)CO)CC3OC1CC(N)C(O)C(C)O1 (stereo unspecified) + Cc1cccc(N(C)C(=O)C2C(O)CCN2c2nc(C)cc(C(F)(F)F)c2C#N)c1
pIC50 (second compound 0.0316 µM): > 7.50
pIC50 (second compound 0.1 µM): > 7.50
pIC50 (second compound 0.316 µM): > 7.50
pIC50 (second compound 1 µM): > 7.50
pIC50 (second compound 3.16 µM): > 7.50
pIC50 (second compound 10 µM): > 7.50
viability, T/C [1]: 20.6%
viability, T/C [2]: 18.4%
viability, T/C [3]: 6.01%
viability, T/C [4]: 0.9%
viability, T/C [5]: 0.17%
viability, T/C [6]: 0.48%
viability, T/C [7]: 21.8%
viability, T/C [8]: 15.9%
viability, T/C [9]: 7.06%
viability, T/C [10]: 0.26%
viability, T/C [11]: 0.22%
viability, T/C [12]: 0.58%
viability, T/C [13]: 20.2%
viability, T/C [14]: 17.8%
viability, T/C [15]: 6.56%
viability, T/C [16]: 0.38%
viability, T/C [17]: 0.19%
viability, T/C [18]: 0.58%
viability, T/C [19]: 21.2%
viability, T/C [20]: 14.6%
viability, T/C [21]: 6.03%
viability, T/C [22]: 0.54%
viability, T/C [23]: 0.29%
viability, T/C [24]: 0.51%
viability, T/C [25]: 20.1%
viability, T/C [26]: 17.9%
viability, T/C [27]: 3.35%
viability, T/C [28]: 0.34%
viability, T/C [29]: 0.32%
viability, T/C [30]: 0.6%
viability, T/C [31]: 17.4%
viability, T/C [32]: 12.3%
viability, T/C [33]: 4.14%
viability, T/C [34]: 0.48%
viability, T/C [35]: 0.3%
viability, T/C [36]: 0.5%
